From US9108923B2, “Compounds, compositions, and methods for cancer therapy” (The Broad Institute, Inc., priority 2012, dated 2015)
Where two headings read alike, the source gives them in different places.

Tests used:
HeLa = assay: ATP Assay (CellTiter-Glo), cellular ATP levels as surrogate for cell viability; assay type: cell-based, human; conditions: cellular ATP levels, 48 h, read-out: EC50 HeLa
Protocol: (§1) ATP Assay. […] At that time, media was removed and replaced with a solution of CellTiter-Glo reagent (Promega) in PBS. After ten minutes, luminescence was read using an EnVision multilabel plate reader (Perkin-Elmer) and signal intensity was calculated relative to in-plate DMSO control wells.
(§2) We next sought to determine the performance of the synthetic analogs relative to PL in cells. […] As a second assay, effects of compound treatments on ATP levels, a surrogate for cell viability, were measured after 48 hours.
(§3) Assays were performed in 384-well plates on two human cancer cell lines, H1703 (lung) and HeLa (cervix).

H1703 = assay: as above; assay type: cell-based, human; conditions: cellular ATP levels, 48 h, read-out: EC50 H1703
Protocol: as §1, §2, §3

[1] = Homo sapiens, NCI-H1703, Table 1
[2] = Homo sapiens, NCI-H1703, Table 2

| EC50 (HeLa; Homo sapiens, HeLa, Table 2) | EC50 (H1703; [2]) | Compound | other results |
| --- | --- | --- | --- |
| – | – | COC(=O)CSC1CCN(C(=O)/C=C/c2cc(OC)c(OC)c(OC)c2)C(=O)C1 (stereo not shown) [Cpd. 7] | EC50 (HeLa; Homo sapiens, HeLa, Table 1): > 20 µM; EC50 (H1703; [1]): 7.9 µM |
| 2 µM | 2 µM | COc1cc(/C=C/C(=O)N2C(=O)C=CCC2c2ccsc2)cc(OC)c1OC (stereo not shown) [Cpd. 7] | – |
| > 20 µM | 8 µM | C=C(C)C(=O)NC(=O)/C=C/C [Cpd. 76, (E)-N-methacryloylbut-2-enamide] | – |
| – | – | COc1cc(/C=C/C(=O)N2CCC=C(C)C2=O)cc(OC)c1OC [compound 3, (E)-3-methyl-1-(3-(3,4,5-trimethoxyphenyl)prop-2-enoyl)-5,6-dihydropyridin-2(1H)-one] | EC50 (HeLa; Homo sapiens, HeLa, Table 1): > 20 µM; EC50 (HeLa; Table 2): > 20 µM; EC50 (H1703; [1]): > 20 µM; EC50 (H1703; Table 2): > 20 µM |
| 6 µM | 3 µM | COc1cc(/C=C/C(=O)N2C(=O)C=CCC2c2cccnc2)cc(OC)c1OC (stereo not shown) [compound 8] | – |
| – | – | COc1cc(/C=C/C(=O)N2CCC(C)=CC2=O)cc(OC)c1OC [compound 8] | EC50 (HeLa; Homo sapiens, HeLa, Table 1): > 20 µM; EC50 (H1703; [1]): > 20 µM |
| – | – | C/C(=C\C(=O)N1CCC=CC1=O)c1ccccc1 [compound 9] | EC50 (HeLa; Homo sapiens, HeLa, Table 1): > 20 µM; EC50 (H1703; [1]): 14 µM |
| 7 µM | 4 µM | COc1ccc(C2CC=CC(=O)N2C(=O)/C=C/c2cc(OC)c(OC)c(OC)c2)cc1 (stereo not shown) [compound 9] | – |
| 4 µM | 2 µM | COc1cc(/C=C/C(=O)N2C(=O)C=CCC2c2cccs2)cc(OC)c1OC (stereo not shown) [compound 10] | – |
| – | – | O=C1C=CCCN1C(=O)c1cc2ccccc2s1 [compound 10] | EC50 (HeLa; Homo sapiens, HeLa, Table 1): > 20 µM; EC50 (H1703; [1]): 18 µM |
| 7 µM | 6 µM | COc1cc(/C=C/C(=O)N2C(=O)C=CCC2C2CCCCC2)cc(OC)c1OC (stereo not shown) [compound 11] | – |
| – | – | COc1cc2c(c(OC)c1OC)CCC(C(=O)N1CCC=CC1=O)=C2 [compound 11] | EC50 (HeLa; Homo sapiens, HeLa, Table 1): > 20 µM; EC50 (H1703; [1]): 14 µM |
| 6 µM | 6 µM | COc1cc(/C=C/C(=O)N2C(=O)C=CCC2C2CCCC2)cc(OC)c1OC (stereo not shown) [compound 12] | – |
| – | – | O=C1C=CCCN1C(=O)/C=C/c1ccccc1Cl [compound 13] | EC50 (HeLa; Homo sapiens, HeLa, Table 1): 7.5 µM; EC50 (H1703; [1]): 4 µM |
| – | – | COc1cc(/C=C/C(=O)N2C(=O)C=CCC2c2ccccc2)cc(OC)c1OC (stereo not shown) [compound 14] | EC50 (HeLa; Homo sapiens, HeLa, Table 1): 6.8 µM; EC50 (H1703; [1]): 3.6 µM |
| 8 µM | 5 µM | O=Cc1ccc(/C=C/C(=O)N2CCC=CC2=O)cc1 [compound 14] | – |
| – | – | COc1cc(/C=C/C(=O)N2CC(c3cccs3)C=CC2=O)cc(OC)c1OC (stereo not shown) [compound 15] | EC50 (HeLa; Homo sapiens, HeLa, Table 1): 15 µM; EC50 (H1703; [1]): 6.5 µM |
| 20 µM | 10 µM | O=C1C=CCCN1C(=O)c1cc2ccccc2o1 [compound 15] | – |
| – | – | O=C1C=CCCN1S(=O)(=O)/C=C/c1ccccc1 [compound 16] | EC50 (HeLa; Homo sapiens, HeLa, Table 1): 4.1 µM; EC50 (H1703; [1]): 2.7 µM |
| 3 µM | 1 µM | COc1cc(/C=C/C(=O)N2CCC=C(C#CC3CCCC3)C2=O)cc(OC)c1OC [compound 17] | – |
| – | – | COc1cc(/C=C/C(=O)N2CCC=C(c3ccccc3)C2=O)cc(OC)c1OC [compound 18] | EC50 (HeLa; Homo sapiens, HeLa, Table 1): > 20 µM; EC50 (H1703; [1]): > 20 µM |
| 6 µM | 5 µM | O=C1C=CCCN1C(=O)/C=C/c1cccc(C(F)(F)F)c1 [compound 18] | – |
| > 20 µM | – | COC1=CC(=O)N(C(=O)/C=C/c2cc(OC)c(OC)c(OC)c2)C1 [compound 19] | – |

| EC50 (HeLa; Homo sapiens, HeLa, Table 2) | EC50 (H1703; [2]) | Compound | other results |
| --- | --- | --- | --- |
| > 20 µM | > 20 µM | COc1cc(/C=C/C(=O)N2CCC=C(c3ccc(F)cc3)C2=O)cc(OC)c1OC [compound 20] | – |
| > 20 µM | > 20 µM | CCC1=C(C)CN(C(=O)/C=C/c2cc(OC)c(OC)c(OC)c2)C1=O [compound 21] | – |
| 20 µM | 9 µM | O=C1C=CCCN1C(=O)c1ccc2ccccc2c1 [compound 22] | – |
| 3 µM | 0.8 µM | COc1cc(/C=C/C(=O)N2CCC=CC2=O)c(F)c(OC)c1OC [compound 23] | – |
| > 20 µM | > 20 µM | COc1cc(/C=C/C(=O)N2CCC=C(c3cccnc3)C2=O)cc(OC)c1OC [compound 24] | – |
| – | – | COc1cc(/C=C/C(=O)N2CCC(C)=CC2=O)cc(OC)c1OC [compound 26] | EC50 (HeLa; Table 2): > 20 µM; EC50 (H1703; Table 2): > 20 µM |
| – | – | C/C(=C\C(=O)N1CCC=CC1=O)c1ccccc1 [compound 27] | EC50 (HeLa; Table 2): > 20 µM; EC50 (H1703; Table 2): 14 µM |
| – | – | O=C1C=CCCN1C(=O)c1cc2ccccc2s1 [compound 28] | EC50 (HeLa; Table 2): > 20 µM; EC50 (H1703; Table 2): 18 µM |
| 2 µM | 0.9 µM | CCCCC#CC1=CCCN(C(=O)/C=C/c2cc(OC)c(OC)c(OC)c2)C1=O [compound 31] | – |
| 4 µM | 1.5 µM | COc1cc(/C=C/C(=O)N2CCC=CC2=O)cc(OC)c1OCCN(C)C [compound 32] | – |
| 15 µM | 5 µM | O=C1C=CCCN1C(=O)c1cc2ccccc2oc1=O [compound 34] | – |
| 1.5 µM | 0.6 µM | COc1cc(/C=C/C(=O)N2CCC=C(C#Cc3ccccc3Cl)C2=O)cc(OC)c1OC [compound 35] | – |
| 1.5 µM | 0.5 µM | COc1cc(/C=C/C(=O)N2CCC=C(C#CC3(O)CCCCC3)C2=O)cc(OC)c1OC [compound 36] | – |
| 18 µM | 4 µM | COc1cc(/C=C(\C)C(=O)N2CCC=CC2=O)cc(OC)c1OC [compound 37] | – |
| 5 µM | 1.5 µM | COc1cc(/C=C/C(=O)N2CCC=C(C#Cc3cccc(Cl)c3)C2=O)cc(OC)c1OC [compound 40] | – |
| 0.3 µM | 0.1 µM | COc1cc(/C=C/C(=O)N2CCC=CC2=O)cc(OC)c1OCCN(CCOc1c(OC)cc(/C=C/C(=O)N2CCC=CC2=O)cc1OC)CCOc1c(OC)cc(/C=C/C(=O)N2CCC=CC2=O)cc1OC [compound 41] | – |
| > 20 µM | 12 µM | CC1=C(C(=O)N2CCC=CC2=O)Cc2ccccc21 [compound 42] | – |
| 1.2 µM | 0.7 µM | COc1cc(/C=C/C(=O)N2CCC=C(C#CC(C)(C)C)C2=O)cc(OC)c1OC [compound 43] | – |
| > 20 µM | > 20 µM | COc1cc(/C=C/C(=O)N2CCC=C(C3CCCCC3)C2=O)cc(OC)c1OC [compound 44] | – |
| 5 µM | 3 µM | COc1cc(/C=C/C(=O)N2CCC=C(C#CC3=CCCCC3)C2=O)cc(OC)c1OC [compound 45] | – |
| > 20 µM | 13 µM | COc1cc(/C=C/C(=O)N2CC=CCC2=O)cc(OC)c1OC [compound 46] | – |
| > 20 µM | > 20 µM | COc1cc(/C=C/C(=O)N2CCC(C)=C(C)C2=O)cc(OC)c1OC [compound 47] | – |
| 3 µM | 0.7 µM | COc1cc(/C=C/C(=O)N2CCC=C(C#Cc3ccc(OC(F)(F)F)cc3)C2=O)cc(OC)c1OC [compound 48] | – |

| EC50 (HeLa; Homo sapiens, HeLa, Table 2) | EC50 (H1703; [2]) | Compound | other results |
| --- | --- | --- | --- |
| – | – | O=C1C=CCCN1C(=O)/C=C/c1ccccc1Cl [compound 49] | EC50 (HeLa; Table 2): 7.5 µM; EC50 (H1703; Table 2): 4 µM |
| – | – | COc1cc(/C=C/C(=O)N2C(=O)C=CCC2c2ccccc2)cc(OC)c1OC (stereo not shown) [compound 50] | EC50 (HeLa; Table 2): 6.8 µM; EC50 (H1703; Table 2): 3.6 µM |
| – | – | COc1cc(/C=C/C(=O)N2CC(c3cccs3)C=CC2=O)cc(OC)c1OC (stereo not shown) [compound 51] | EC50 (HeLa; Table 2): 15 µM; EC50 (H1703; Table 2): 6.5 µM |
| – | – | COc1cc(/C=C/C(=O)N2CCC=C(c3ccccc3)C2=O)cc(OC)c1OC [compound 54] | EC50 (HeLa; Table 2): > 20 µM; EC50 (H1703; Table 2): > 20 µM |
| > 20 µM | 3 µM | COc1cc(/C=C/C(=O)N2CCC=C(I)C2=O)cc(OC)c1OC [compound 55] | – |
| 9 µM | 4 µM | CCCCCCCCCCC#CC1=CCCN(C(=O)/C=C/c2cc(OC)c(OC)c(OC)c2)C1=O [compound 57] | – |
| 11 µM | 8 µM | COc1cc(/C=C(\F)C(=O)N2CCC=CC2=O)cc(OC)c1OC [compound 58] | – |
| 3 µM | 1.5 µM | COc1cc(/C=C/C(=O)N2CCC=C(C#CC3CCCCC3)C2=O)cc(OC)c1OC [compound 59] | – |
| 1.5 µM | 0.5 µM | COc1cc(/C=C/C(=O)N2CCC=C(C#Cc3ccccc3)C2=O)cc(OC)c1OC [compound 61] | – |
| 7 µM | 5 µM | O=C1C=CCCN1C(=O)/C=C/c1cccc(Br)c1 [compound 62] | – |
| 10 µM | 2 µM | COc1cc(/C=C/C(=O)N2CCC=C(C#CCc3ccccc3)C2=O)cc(OC)c1OC [compound 63] | – |
| > 20 µM | – | COc1cc(CCC(=O)N2CCCCC2=O)cc(OC)c1OC [compound 65] | – |
| > 20 µM | – | COc1cc(/C=C/C(=O)N2CCC=C(c3ccc(C)cc3)C2=O)cc(OC)c1OC [compound 66] | – |
| 0.5 µM | 0.2 µM | COc1cc(/C=C/C(=O)N2CCC=CC2=O)cc(OC)c1OCCN(C)CCOc1c(OC)cc(/C=C/C(=O)N2CCC=CC2=O)cc1OC [compound 67] | – |
| 0.9 µM | 0.4 µM | COc1cc(/C=C/C(=O)N2CCC=C(C#Cc3ccc(F)cc3)C2=O)cc(OC)c1OC [compound 68] | – |
| 2 µM | 1 µM | COc1cc(/C=C/C(=O)N2CCC=C(C#Cc3ccsc3)C2=O)cc(OC)c1OC [compound 69] | – |
| > 20 µM | 10 µM | O=C1C=CCCN1C(=O)/C(F)=C/c1ccccc1 [compound 70] | – |
| > 20 µM | > 20 µM | COc1cc(/C=C/C(=O)N2CCC=C(c3ccc(Oc4ccccc4)cc3)C2=O)cc(OC)c1OC [compound 71] | – |
| 19 µM | 4.7 µM | C=C(C)C(=O)N1CCC=CC1=O [compound 73] | – |
| 11 µM | 2.3 µM | O=C1C=CCCN1C(=O)/C=C/C(=O)N1CCC=CC1=O [compound 74] | – |
| 4.1 µM | 0.91 µM | O=C(C#Cc1ccccc1)N1CCC=CC1=O [compound 75] | – |
